Target: Acetylcholinesterase (Homo sapiens, UniProt P22303)
Assay: Inhibition of Acetylcholinesterase (AChE) from human RBC

Sequence of Acetylcholinesterase (P22303 whole entry): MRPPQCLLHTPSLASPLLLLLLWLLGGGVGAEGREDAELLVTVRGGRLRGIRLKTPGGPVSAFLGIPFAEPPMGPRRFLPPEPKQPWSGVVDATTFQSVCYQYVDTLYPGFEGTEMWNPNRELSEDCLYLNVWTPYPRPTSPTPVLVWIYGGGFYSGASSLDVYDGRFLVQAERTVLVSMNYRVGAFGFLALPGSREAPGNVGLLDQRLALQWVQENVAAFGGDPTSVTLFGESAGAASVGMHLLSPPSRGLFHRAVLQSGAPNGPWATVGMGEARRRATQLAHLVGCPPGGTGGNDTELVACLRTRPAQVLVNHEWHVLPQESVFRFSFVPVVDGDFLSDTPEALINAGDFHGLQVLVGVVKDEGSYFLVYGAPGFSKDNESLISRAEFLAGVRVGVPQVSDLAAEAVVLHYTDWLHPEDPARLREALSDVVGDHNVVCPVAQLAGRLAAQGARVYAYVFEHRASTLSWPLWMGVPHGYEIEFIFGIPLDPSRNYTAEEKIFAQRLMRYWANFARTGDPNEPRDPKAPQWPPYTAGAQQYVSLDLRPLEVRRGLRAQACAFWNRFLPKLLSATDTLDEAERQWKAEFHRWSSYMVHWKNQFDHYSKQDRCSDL

CN1CC[C@@]2(C)c3cc(OC(=O)NCCCCN4CCOCC4)ccc3N(C)[C@@H]12
IC50: 21 µM

CN1CC[C@@]2(C)c3cc(OC(=O)NCCCCCCCCN4CCOCC4)ccc3N(C)[C@@H]12
IC50: 0.08 µM

Reference: ChEMBL document CHEMBL1128816, “Synthesis and structure-activity relationships of new acetylcholinesterase inhibitors: Morpholinoalkylcarbamoyloxyeseroline derivatives” (Bioorg Med Chem Lett, 1995)
